Source: paper PMC6753678, “Fueling Open Innovation for Malaria Transmission-Blocking Drugs: Hundreds of Molecules Targeting Early Parasite Mosquito Stages” (Frontiers in Microbiology, 2019)
pIC50: −log10 of the molar value. Values joined by “and” are separate entries in the source; they are usually repeats but may differ in a detail not shown here. Equal values may be shown once. Read-outs that look alike come from different tables or passages of the source.

Key:
[1] = test system: 3D7-strain P. falciparum asexual parasites; experiment: P. falciparum asexual growth inhibition assay (Pf GIA); type: cell-based, Plasmodium falciparum
How it was run: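 Steps: seed parasites (0.25% parasitemia, 2% hematocrit) onto compound dilutions; incubate 72 h at 37°C, 5% O2/5% CO2; freeze at −70°C and thaw; add LDH reaction mix, read A650 after 10 min. Percent growth inhibition derived from chloroquine and DMSO controls, averaged over three biological replicates.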

HepG2 cells [2] = experiment: HepG2 cytotoxicity assay; conditions: for Unified cytotox: HepG2 cytotoxicity unified across the three screens; for HepG2 cytoxicity: value reported with the Pb ODA screen, this manuscript
How it was run: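 Here viability after a 48 h compound incubation (37°C, humidified 5% CO2) is measured by fluorescence and expressed as percent inhibition, with doxorubicin at 50 μM and DMSO as the bounding controls.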

[3] = test system: P. berghei ookinete development; conditions: for % inhibition, Replicate A / % inhibition, Replicate B: primary screen at 1 μM
[4] = test system: P. berghei ookinete development; experiment: microbe, parasite or virus in culture; conditions: Plasmodium berghei
[5] = test system: P. berghei oocyst intensity in Anopheles stephensi mosquitoes; experiment: P. berghei standard membrane feeding assay (Pb SMFA); conditions: read-out: % inhibition Pb SMFA 1 μM (±SEM), inhibition of oocyst intensity at 1 μM
[6] = test system: P. falciparum male gametocytes; experiment: P. falciparum Dual Gamete Formation Assay (Pf DGFA), male readout
[7] = test system: P. falciparum female gametocytes; experiment: P. falciparum Dual Gamete Formation Assay (Pf DGFA), female readout
[8] = test system: P. falciparum late stage (stages IV-V) gametocytes; parameters: method as in Almela et al 2016; conditions: TCAMS screen comparison; ref Almela et al 2016; read-out: Pf GCT ATP IC50; cited from earlier work
[9] = test system: P. falciparum female gametocytes; parameters: method as in Miguel-Blanco et al 2017; conditions: TCAMS screen comparison; ref Miguel-Blanco et al 2017; read-out: Pf FGAA IC50; cited from earlier work
HepG2 cells [10] = conditions: cited from earlier work
[11] = test system: P. falciparum female gametocytes; experiment: P. falciparum female gametogenesis assay (Pf FGAA); conditions: 1: YES; 0: NO
[12] = test system: P. falciparum late stage (stages IV-V) gametocytes; experiment: P. falciparum late stage gametocyte ATP depletion assay (Pf GC-ATP); conditions: 1: YES; 0: NO
[13] = dose response confirmation, read-out: Pf asexual growth inhibition assays IC50
[14] = read-out: HepG2 cytotoxicity assay IC50, dose response confirmation
[15] = read-out: Pb ODA IC50, this manuscript
[16] = read-out: Pb Ookinete development assay IC50, dose response confirmation
[17] = value reported with the Pf FGAA screen, ref Miguel-Blanco et al 2017
[18] = value reported with the Pf GCT ATP screen, ref Almela et al 2016

For `CCCCCCCc1c(C)nc2cc(OC)ccc2c1O` [TCMDC-137173, endochin], the pIC50 ([1]; Plasmodium falciparum, 3D7, dose response confirmation, read-out: Pf asexual growth inhibition assays IC50) was 7.46, the pIC50 ([1]; Plasmodium falciparum, 3D7, 72 h, LDH readout, read-out: IC50 Pf Asexual) was 7.45 and the “Pb ODA (this manuscript) HepG2 cytoxicity” value (HepG2 cells [2]; HepG2 cytotoxicity listed with the Pb ODA data set (this manuscript)) was 100.00 µM. For the same compound, the pIC50 (HepG2 cells [2]; Homo sapiens, HepG2, 48 h, read-out: IC50 HepG2) was under 4.00, the “Is compound selective in assay? Pb ODA active?” value [3] was 1 (key: 1: YES; 0: NO) and the inhibition at 1 µM ([4]; read-out: % inhibition, Replicate A) was 115%. It also gave an inhibition at 1 µM ([4]; read-out: % inhibition, Replicate B) of 101%, a pIC50 ([4]; read-out: IC50 Pb ODA, dose response, at least triplicate) of over 7.22 and an IC50 ([4]; read-out: Pb ODA (this manuscript) IC50 (µM), P. berghei ookinete development assay, this manuscript) of 0.0248 µM. For the same compound, the IC50 ([4]; read-out: Pb Ookinete development assay IC50 (µM), dose response confirmation) was 0.025 µM, the inhibition at 1 µM [5] was 98.4% and the “Pf DGFA Male, Expt 1” value ([6]; 1µM, Expt 1) was 94.68. For the same compound, the “Pf DGFA Male, Expt 2” value ([6]; 1µM, Expt 2) was 60.36, the “Pf DGFA Male, Expt 3” value ([6]; 1µM, Expt 3) was 74.13 and the “Pf DGFA Male, Expt 4” value ([6]; 1µM, Expt 4) was 77.74. For the same compound, the “% inhibition Pf DGFA (male) 1 μM (±SEM)” value ([6]; 1 μM, mean of four experiments) was 76.7% and 76.73%, the inhibition at 1 µM ([6]; Plasmodium falciparum, read-out: % inhibition Pf DGFA (male) 1 μM (±SEM), 1 μM, mean of four experiments) was 76.7% and the “Pf DGFA Female, Expt 1” value ([7]; 1µM, Expt 1) was 46.16. For the same compound, the “Pf DGFA Female, Expt 2” value ([7]; 1µM, Expt 2) was 7.10, the “Pf DGFA Female, Expt 3” value ([7]; 1µM, Expt 3) was 41.06 and the “Pf DGFA Female, Expt 4” value ([7]; 1µM, Expt 4) was -10.25. The “% inhibition Pf DGFA (female) 1 μM (±SEM)” value ([7]; 1 μM, mean of four experiments) was 21.02% and the inhibition at 1 µM ([7]; Plasmodium falciparum, read-out: % inhibition Pf DGFA (female) 1 μM (±SEM), 1 μM, mean of four experiments) was 21%.
With `ON=C1CCc2cc(-c3cc(-c4ccc(OC5CCNCC5)cc4)oc3-c3ccncc3)ccc21` [TCMDC-141381] the pIC50 [1, 13] was 6.91, the “Unified cytotox” value (HepG2 cells [2]) was 5.92 µM and the pIC50 (HepG2 cells [2]; [14]) was 5.28. The “HepG2 cytoxicity” value (HepG2 cells [2]) was 5.25 µM, the “Is compound selective in assay? Pb ODA active?” value ([3]; 1: YES, 0: NO) was 0 (0: NO) and the “% inhibition, Replicate A” value [3] was 75.99%. The “% inhibition, Replicate B” value [3] was 61.54%, the pIC50 [3, 15] was 5.85 and the pIC50 [3, 16] was 5.85. The pIC50 [8] was 6.57, the pIC50 [9] was 6.70 and the “HepG2 cytoxicity” value (HepG2 cells [10]; [17]) was 5.01 µM. The “HepG2 cytoxicity” value (HepG2 cells [10]; [18]) was 7.5 µM, the “Is compound selective in assay? Pf FGAA active?” value [11] was 1 (1: YES) and the “Is compound selective in assay? Pf GC-ATP active?” value [12] was 1 (1: YES).
With `O=C(O)CCSSc1cccc[n+]1[O-]` [TCMDC-141973] the pIC50 [1, 13] was 5.78, the “Unified cytotox” value (HepG2 cells [2]) was 19.25 µM and the pIC50 (HepG2 cells [2]; [14]) was 4.51. For the same compound, the “HepG2 cytoxicity” value (HepG2 cells [2]) was 30.90 µM, the “Is compound selective in assay? Pb ODA active?” value ([3]; 1: YES, 0: NO) was 1 (1: YES) and the “% inhibition, Replicate A” value [3] was 62.58%. For the same compound, the “% inhibition, Replicate B” value [3] was 47.23%, the pIC50 [3, 15] was 5.72 and the pIC50 [3, 16] was 5.72. For the same compound, the pIC50 [8] was 6.57, the pIC50 [9] was 7.40 and the “HepG2 cytoxicity” value (HepG2 cells [10]; [17]) was 19.05 µM. For the same compound, the “HepG2 cytoxicity” value (HepG2 cells [10]; [18]) was 7.8 µM, the “Is compound selective in assay? Pf FGAA active?” value [11] was 1 (1: YES) and the “Is compound selective in assay? Pf GC-ATP active?” value [12] was 1 (1: YES).
